{
  "source": "ChEMBL document CHEMBL2073940",
  "about": "“Vinblastine and sulfinpyrazone export by the multidrug resistance protein MRP2 is associated with glutathione export” (Br J Cancer, 2000)",
  "type_in_all_cases": "functional, cell-based",
  "settings_in_all_cases": "dog, mdck-ii",
  "key": {"[1]": {"target": "T1, Multidrug resistance-associated protein 1 (Homo sapiens, UniProt P33527)", "T1 sequence (P33527 whole entry)": "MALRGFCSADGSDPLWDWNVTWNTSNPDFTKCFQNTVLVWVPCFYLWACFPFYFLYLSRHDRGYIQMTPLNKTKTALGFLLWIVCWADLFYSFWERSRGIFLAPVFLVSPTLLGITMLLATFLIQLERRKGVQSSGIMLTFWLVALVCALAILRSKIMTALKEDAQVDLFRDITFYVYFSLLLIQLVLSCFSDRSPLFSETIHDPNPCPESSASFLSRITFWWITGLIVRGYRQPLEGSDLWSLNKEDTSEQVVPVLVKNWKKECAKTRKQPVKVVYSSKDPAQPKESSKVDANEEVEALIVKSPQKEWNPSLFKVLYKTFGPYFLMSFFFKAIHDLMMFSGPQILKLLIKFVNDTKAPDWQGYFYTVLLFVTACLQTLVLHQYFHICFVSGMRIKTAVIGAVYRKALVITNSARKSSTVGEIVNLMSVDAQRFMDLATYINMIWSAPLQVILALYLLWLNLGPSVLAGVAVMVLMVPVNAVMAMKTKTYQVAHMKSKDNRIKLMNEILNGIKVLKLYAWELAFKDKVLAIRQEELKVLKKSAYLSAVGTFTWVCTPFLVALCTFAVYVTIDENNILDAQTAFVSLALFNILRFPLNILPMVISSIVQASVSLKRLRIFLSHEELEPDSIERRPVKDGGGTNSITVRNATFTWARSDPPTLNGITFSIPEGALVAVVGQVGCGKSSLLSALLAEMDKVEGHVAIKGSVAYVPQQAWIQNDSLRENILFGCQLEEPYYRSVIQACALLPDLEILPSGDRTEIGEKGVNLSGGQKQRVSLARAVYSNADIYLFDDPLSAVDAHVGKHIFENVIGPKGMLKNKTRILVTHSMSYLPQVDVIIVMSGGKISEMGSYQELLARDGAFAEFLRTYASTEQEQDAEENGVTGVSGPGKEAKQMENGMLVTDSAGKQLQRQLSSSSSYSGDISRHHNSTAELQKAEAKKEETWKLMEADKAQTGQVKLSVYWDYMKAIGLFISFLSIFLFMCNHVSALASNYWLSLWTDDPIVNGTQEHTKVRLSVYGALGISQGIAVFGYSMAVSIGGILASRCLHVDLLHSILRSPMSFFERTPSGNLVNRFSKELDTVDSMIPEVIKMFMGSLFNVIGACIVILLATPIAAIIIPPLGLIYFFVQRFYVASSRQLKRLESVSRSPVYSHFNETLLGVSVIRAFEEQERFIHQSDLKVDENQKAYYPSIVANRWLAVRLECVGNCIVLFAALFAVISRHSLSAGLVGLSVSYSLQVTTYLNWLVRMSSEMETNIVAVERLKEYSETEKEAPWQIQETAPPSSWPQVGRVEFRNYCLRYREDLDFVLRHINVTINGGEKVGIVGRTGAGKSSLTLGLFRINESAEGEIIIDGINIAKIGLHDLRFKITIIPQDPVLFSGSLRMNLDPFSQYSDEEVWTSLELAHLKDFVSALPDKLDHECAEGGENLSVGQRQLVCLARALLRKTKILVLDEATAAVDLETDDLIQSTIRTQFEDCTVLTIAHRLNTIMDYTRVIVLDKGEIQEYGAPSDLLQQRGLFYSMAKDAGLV", "test": "TP_TRANSPORTER: inhibition of Glutathione efflux (Benzbromarone: 25 uM) in MRP1-expressing MDCKII cells"}, "[2]": {"target": "T1, Multidrug resistance-associated protein 1", "test": "TP_TRANSPORTER: inhibition of Glutathione efflux (Indomethacin: 400 uM) in MRP1-expressing MDCKII cells"}, "[3]": {"target": "T1, Multidrug resistance-associated protein 1", "test": "TP_TRANSPORTER: inhibition of Glutathione efflux (Sulfinpyrazone: 3200. uM) in MRP1-expressing MDCKII cells"}, "[4]": {"target": "ATP-binding cassette sub-family C member 2 (Homo sapiens, UniProt Q92887)", "sequence (Q92887 whole entry)": "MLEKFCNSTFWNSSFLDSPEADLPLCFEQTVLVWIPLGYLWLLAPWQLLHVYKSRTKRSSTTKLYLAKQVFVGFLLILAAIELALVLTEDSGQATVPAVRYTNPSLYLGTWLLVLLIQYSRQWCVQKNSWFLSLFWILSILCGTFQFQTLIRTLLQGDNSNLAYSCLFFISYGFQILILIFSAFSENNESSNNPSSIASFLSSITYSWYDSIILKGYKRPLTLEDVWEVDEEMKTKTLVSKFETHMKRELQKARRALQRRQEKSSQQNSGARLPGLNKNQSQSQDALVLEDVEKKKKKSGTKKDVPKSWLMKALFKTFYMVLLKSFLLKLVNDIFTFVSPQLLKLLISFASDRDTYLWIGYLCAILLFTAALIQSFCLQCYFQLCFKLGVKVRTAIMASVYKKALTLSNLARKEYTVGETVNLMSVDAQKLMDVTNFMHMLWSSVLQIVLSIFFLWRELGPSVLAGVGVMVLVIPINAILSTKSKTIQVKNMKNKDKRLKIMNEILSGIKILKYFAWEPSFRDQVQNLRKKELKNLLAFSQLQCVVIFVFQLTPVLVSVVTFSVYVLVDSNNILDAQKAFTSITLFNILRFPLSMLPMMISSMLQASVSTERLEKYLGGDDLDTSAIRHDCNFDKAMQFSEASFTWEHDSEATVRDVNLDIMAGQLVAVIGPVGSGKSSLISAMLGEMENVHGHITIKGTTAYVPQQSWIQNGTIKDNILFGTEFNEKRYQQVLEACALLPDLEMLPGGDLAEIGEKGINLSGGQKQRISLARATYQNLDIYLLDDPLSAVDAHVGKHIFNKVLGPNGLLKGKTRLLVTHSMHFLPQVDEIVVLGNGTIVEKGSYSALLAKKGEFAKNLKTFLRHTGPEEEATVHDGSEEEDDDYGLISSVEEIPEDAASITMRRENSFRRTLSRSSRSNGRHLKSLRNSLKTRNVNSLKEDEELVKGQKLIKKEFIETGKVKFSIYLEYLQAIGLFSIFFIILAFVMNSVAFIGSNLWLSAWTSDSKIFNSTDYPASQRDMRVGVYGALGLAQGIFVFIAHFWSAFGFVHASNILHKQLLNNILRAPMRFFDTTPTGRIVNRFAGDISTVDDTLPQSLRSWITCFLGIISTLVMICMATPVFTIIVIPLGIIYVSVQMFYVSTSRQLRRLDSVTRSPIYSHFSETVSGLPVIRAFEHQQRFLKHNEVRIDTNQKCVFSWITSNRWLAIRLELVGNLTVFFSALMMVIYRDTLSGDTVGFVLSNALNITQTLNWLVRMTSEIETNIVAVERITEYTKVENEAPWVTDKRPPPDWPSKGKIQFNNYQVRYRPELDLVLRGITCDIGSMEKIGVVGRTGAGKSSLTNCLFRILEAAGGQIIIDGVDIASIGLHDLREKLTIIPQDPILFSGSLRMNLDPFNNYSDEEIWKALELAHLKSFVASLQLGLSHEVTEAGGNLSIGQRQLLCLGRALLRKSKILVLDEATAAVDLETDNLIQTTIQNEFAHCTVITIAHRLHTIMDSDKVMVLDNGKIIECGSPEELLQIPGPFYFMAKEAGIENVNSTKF", "test": "TP_TRANSPORTER: transepithelial transport (basal to apical) in MRP2-expressing MDCKII cells"}},
  "data": [
    {"compound": "CCc1oc2ccccc2c1C(=O)c1cc(Br)c(O)c(Br)c1", "note": "[BENZBROMARONE]", "values": [
      {"measurement": "Activity", "setting": "[1]", "result": "inhibitor [+]"}
    ]},
    {"compound": "COc1ccc2c(c1)c(CC(=O)O)c(C)n2C(=O)c1ccc(Cl)cc1", "note": "[INDOMETHACIN]", "values": [
      {"measurement": "Activity", "setting": "[2]", "result": "inhibitor [+]"}
    ]},
    {"compound": "O=C1C(CC[S+]([O-])c2ccccc2)C(=O)N(c2ccccc2)N1c1ccccc1", "note": "(centres undefined) [SULFINPYRAZONE]", "values": [
      {"measurement": "Activity", "setting": "[3]", "result": "inhibitor [+]"},
      {"measurement": "Activity", "setting": "[4]", "result": "substrate [+]"}
    ]}
  ]
}
